Data: patent US20060198900A1, “Bioactive Agent Compositions for Repair of Cell Injuries” (Nutritional Bioscience Limited, priority 2004, published 2006)
Entries after “also recorded” stand apart in the source; their conditions may differ.

Legend:
[1] = test system: recurrent herpes simplex infection (cold sores); conditions: oral 600-1000 mg per day in two doses; increasing from 46 days; cited from earlier work
[2] = test system: human colonic cancer cell line HT-29; experiment: Cell restitution (migration) assay in wounded HT-29 monolayers; assay type: cell-based; conditions: 10 ug/ml, 8 hours after wounding
Protocol: Accordingly, the human colonic cancer cell line HT-29 was grown to confluence in six well plates in a solution of DMEM-containing glutamine and 10% fetal calf serum. The monolayers of the cells were then wounded by scraping a disposable pipette tip across the dishes, washed with fresh serum-free medium, and then cultured in a serum-free medium in the presence of 1 mg/ml, 2 mg/ml, and 5 mg/ml colostrum solutions. The rate of movement of the anterior edges of the wounded monolayer cells was then determined by taking serial photomicrographs at various times after wounding (i.e., 0, 4, 8, 12, and 24) hours, using an inverted Nikon TS100 microscope and a Nikon Coolpix 800 digital camera with 100-fold magnification. Identical regions were examined at each time point by premarking the base of the plates to facilitate alignment. […] Each wound was examined in at least three different regions, and expressed as mean and SEM of three separate experiments.
The next study analyzed the potential added benefit of using colostrum rather than milk based product. […] The distance migrated by the leading edge of the cells 8 hours after wounding was then assessed. […]
The next study analysed the potential added benefit of using licorice as a stimulant of restitution. […] The distance migrated by the leading edge of the cells 8 hours after wounding was then assessed. […]

Caco2-BBe cells = conditions: relatively small amount, 1 mg protein/ml; cited from earlier work
[3] = test system: indomethacin-induced rat gastric damaging model; experiment: Indomethacin-induced rat gastric damaging model; assay type: in vivo; conditions: 1% via gavage before indomethacin

Nc1nc2c(ncn2COCCO)c(=O)[nH]1 [acyclovir]
mean time to recurrence of cold sores [1]: 118 days

epidermal growth factor [EGF, peptide growth factor used as positive control]
amount of migration of leading edge versus DMEM alone [2]: two-fold increase; also recorded: increased the amount of cell movement

O=c1c(-c2ccc(O)cc2)coc2cc(O)cc(O)c12 [genistein]
growth of Caco2-BBe cells (Caco2-BBe cells): increase some parameters of growth

O=C([O-])O.[Na+] [sodium bicarbonate]
reduction of degree of gastric injury compared to saline control [3]: about 75%
